One data set deals with RPMI-8226 (myeloma). In words: SRB-based cytotoxicity assay. The data set is classed as cell-based. Particulars: 72 hours. As to the method:
(§1) For (anti)proliferation assays, 4,000-5,000 cells/well of the 96-well clustered dish were incubated for 16 hours, as described previously (Hu et al., 2008; Skehan et al., 1990). After 16 hours, culture medium was replaced with fresh medium containing different dilutions of test compounds dissolved in DMSO. Some wells were treated with 100 μl of 10% trichloroacetic acid (TCA) as a negative control and sham (medium with dimethyl sulfoxide; DMSO) treated cells were used as a positive control. After 72 hours post-incubation, medium was removed and cells were fixed with 10% TCA at 4° C. for 1 hour. TCA was removed and cells were washed with cold tap water, and plate was air-dried, followed by addition of 50 μl of 0.4% SRB staining solution to each well. After 30 minutes incubation, SRB staining solution was removed. Cells were washed with 1% acetic acid solution, and then washed with tap water to remove unbound staining solution, followed by air-drying. 200 μl of 10 mM (pH10.5) trizma base buffer was added to each well to solubilise macromolecules. SRB stained macromolecules were determined at a 540 nm wavelength using an automated plate reader (Synergy H4 Hybrid Multi-Mode Microplate Reader, BioTek, Winooski, Vt.). Cell growth (inhibition) was calculated by the following formula:
(§2) % cells proliferation=[(AT−CT)/(ST−CT)]×100
(§3) wherein AT=absorbance of treated cells, CT=absorbance of negative control cells, and ST=absorbance of sham treated cells. IC50 values were calculated from sigmoidal dose-response curves generated by two independent biological replicates, with quadruplicate in each set by using Graph Pad Prism v.5.04 software. […] The combinational index (CI) was calculated as described previously (Chou 2006). If the CI values were less than, equal to or more than 1, it indicates a synergistic, additive or antagonistic effect respectively (Chou 2006). CI values were determined from four independent experiments.

Another data set deals with MCF-10A. In words: SRB-based cytotoxicity assay. To be noted: for IC50: Homo sapiens; for Cell survival rate: MCF10A, 0.39 μM. The data set is classed as cell-based. As to the method: as §1, §2, §3
Another data set has as its system 184B5. The experiment in a line: SRB-based cytotoxicity assay. The data set is classed as cell-based. To be noted: Homo sapiens, 184B5 non-cancer. The method, then: as §1, §2, §3
A further data set relates to HeLa. The experiment in a line: SRB-based cytotoxicity assay. The data set is classed as cell-based. To be noted: for IC50: HeLa. The method, then:
as §1, §2, §3

Another data set relates to MDA-MB231TaxR. The experiment in a line: SRB-based cytotoxicity assay, single and combination with paclitaxel. Particulars: for killing of MDA-MB231TaxR compared with parental MDA-MB231: TaxR selected in 100.0 nM paclitaxel. It counts as cell-based. As to the method:
All of the cell lines used were purchased from ATCC and cultured in RPMI-1640 supplemented with 10% fetal bovine serum and antibiotics (100 units penicillin/100 μg/ml streptomycin), unless stated otherwise. 1845B5 and MCF-10A non-cancer breast cell lines were cultured in DME/F12 medium supplemented with 10% fetal bovine serum, antibiotics and growth factors. […] The human small cell lung carcinoma H69 cell line and its multidrug-resistant MRP1-overexpressing isogenic H69AR cell line were purchased from ATCC. […] H69 cells grow as large multi-cell aggregates, making it difficult to accurately count cell numbers. […] The IL-6 dependent bortezomib-resistant ANBL6-BR cell line was further supplemented with 1 ng/ml of IL-6. The MCF10AT1 and MCF10CA1a cell lines are isogenic to the MCF10A cell line, and obtained from Dr. Valerie Weaver at the Center for Bioengineering and Tissue Regeneration, UCSF, CA, USA. MCF10AT1 is a premalignant cell line generated by transforming MCF10A with c-Ha-Ras; and MCF10CA1a was isolated by selecting malignant cells after MCF10AT1 cells were engrafted into mice (Liu & Lin 2004; […] et al. 2009). […] The drug-resistant cells were cultured in the absence of drug for at least one passage before carrying out experiments. All cells were maintained in a humidified incubator at 37° C. […] Cell line authentication was performed using short tandem repeat (STR) profiling. For (anti)proliferation assays, 4,000-5,000 cells/well of the 96-well clustered dish were incubated for 16 hours, as described previously (Hu et al., 2008; Skehan et al., 1990). […] Some wells were treated with 100 μl of 10% trichloroacetic acid (TCA) as a negative control and sham (medium with dimethyl sulfoxide; DMSO) treated cells were used as a positive control. […] TCA was removed and cells were washed with cold tap water, and plate was air-dried, followed by addition of 50 μl of 0.4% SRB staining solution to each well. After 30 minutes incubation, SRB staining solution was removed. Cells were washed with 1% acetic acid solution, and then washed with tap water to remove unbound staining solution, followed by air-drying. 200 μl of 10 mM (pH10.5) trizma base buffer was added to each well to solubilise macromolecules. […] Cell growth (inhibition) was calculated by the following formula: % cells proliferation=[(AT-CT)/(ST-CT)]×100 wherein AT=absorbance of treated cells, CT=absorbance of negative control cells, and ST=absorbance of sham treated cells. […] The combinational index (CI) was calculated as described previously (Chou 2006). […] CI values were determined from four independent experiments.

The nature of another data set: Kidney histology (H&E). It counts as in vivo, mice. Particulars: day 30; paclitaxel 10 mg/kg; CTR 30 mg/kg; or paclitaxel 5 mg/kg + CTR 15 mg/kg. As to the method: Animals were monitored for food and water consumption every day, and their body weights and tumor volumes were measured twice per week. Tumor volumes were measured with a digital caliper and were determined by using the following formula: ½ length×width^2. Blood samples were collected via cardiac puncture and processed further for ALT and AST measurements. The animals were then immediately euthanized by carbon dioxide. Tumors and vital organs (spleen, kidney, liver and lung) were collected and fixed in 10% buffered formalin at 4° C. overnight before being processed for paraffin embedding. The paraffin-embedded blocks were then cut into 4-5 μm thick sections. Each section of tumors and organs was stained with hematoxylin and eosin (H&E).
Changes in body weight, hemoglobin (Hb) and the amount and ratio of alanine transaminase (ALT)/aspartate transaminase (AST) were used to measure toxic effects. In addition, vital organs (liver, spleen, kidney and lung) were analyzed by […] after they were harvested, fixed, processed, paraffin-embedded, sectioned, and stained as described above.
ATH490 mice were treated as described in Table 11. At day 30, kidneys were harvested, stained with H&E, and observed under a Zeiss EPI-fluorescent microscope (40× objective).

Setting [1] is: MCF-10A non-cancer, SRB, Table 2.
Setting [2] is: MCF-10A, MCF10A non-cancer, 72 hours, Table 4.

The source of these data is patent US20180344725A1, “QUINOLONE CHALCONE COMPOUNDS AND USES THEREOF” (priority 2015, published 2018).

For orientation: IC50 means the concentration that gives 50% inhibition.

For `COc1ccc2[nH]c(=O)c(/C=C/C(=O)c3ccccc3OC)cc2c1` [CTR-20, (E)-6-Methoxy-3-(3-(2-methoxyphenyl)-3-oxoprop-1-enyl) quinolin-2(1H)-one], the IC50 in the data set on RPMI-8226 (myeloma) (Homo sapiens) was 0.23 µM; with MCF-10A (setting [1]), 2.37 ± 0.21 µM; in the data set on 184B5 (SRB, Table 2), 1.24 ± 0.06 µM; with HeLa (Homo sapiens, SRB, Table 2), 0.1 ± 0.02 µM. The figures for the Cell survival rate with MCF-10A (72 hours) and in the data set on MDA-MB231TaxR (single agent 0.3 μM) were 75% and 63.7 ± 2.52, respectively. Besides, the “preferentially kill cancer over non-cancer cells” value with HeLa (HeLa versus MCF-10A) is at most 24 times. Moreover, the “killing of MDA-MB231TaxR compared with parental MDA-MB231” value in the data set on MDA-MB231TaxR is recorded as “to the same degree as the parental MDA-MB231 cells”. Besides, the “effects on the kidney” value in “Kidney histology (H&E)” was “generally did not cause any notable ill-effects to the kidney”.

`COc1ccccc1C(=O)/C=C/c1cc2ccccc2[nH]c1=O` [CTR-17, (E)-3-(3-(2-Methoxyphenyl)-3-oxoprop-1-enyl)quinolin-2(1H)-one]: the half-maximal inhibitory concentration (IC50) came to 0.36 ± 0.04 µM in the data set with RPMI-8226 (myeloma) (Homo sapiens); 3.95 ± 0.14 µM in the data set on MCF-10A (setting [1]); 3.49 ± 0.03 µM in the data set on 184B5 (SRB, Table 2); 0.33 ± 0.06 µM with HeLa (Homo sapiens, SRB, Table 2). In addition, in the data set on MCF-10A (72 hours), the Cell survival rate amounted to 95%. The “killing of MDA-MB231TaxR compared with parental MDA-MB231” value in the data set with MDA-MB231TaxR is recorded as “to the same degree as the parental MDA-MB231 cells”. For the same compound, the “effects on the kidney” value in the data set “Kidney histology (H&E)” was “generally did not cause any notable ill-effects to the kidney”.

Consider `CCOc1ccccc1C(=O)/C=C/c1cc2ccccc2[nH]c1=O` [CTR-32, (E)-3-(3-(2-ethoxyphenyl)-3-oxoprop-1-enyl)quinolin-2(1H)-one], for which the half-maximal inhibitory concentration (IC50) in the data set with RPMI-8226 (myeloma) (Table 4) was found to be 0.00629 ± 0.00143 µM; with MCF-10A (setting [2]) it was 0.0301 ± 0.00161 µM; with 184B5 (72 hours, Table 4) it was 0.052 ± 0.00735 µM; with HeLa (72 hours, Table 4) it was 0.0129 ± 0.00035 µM. In addition, the “killing of MDA-MB231TaxR compared with parental MDA-MB231” value in the data set on MDA-MB231TaxR was “to the same degree as the parental MDA-MB231 cells”. The Cell survival rate in the data set on MDA-MB231TaxR (single agent 23.4 nM) stood at 53.07 ± 6.50.

Take `CC(=O)O[C@H]1C(=O)[C@@]2(C)[C@H]([C@H](OC(=O)c3ccccc3)[C@]3(O)C[C@H](OC(=O)[C@H](O)[C@@H](NC(=O)c4ccccc4)c4ccccc4)C(C)=C1C3(C)C)[C@]1(OC(C)=O)CO[C@@H]1C[C@@H]2O` [Paclitaxel, reference compound]: the Cell survival rate came to 95.84 ± 1.86 in the data set on MDA-MB231TaxR (single agent 18.75 nM); 90.28 ± 3.58 with MDA-MB231TaxR (single agent 37.5 nM); 90.98 ± 4.49 with MDA-MB231TaxR (single agent 75.0 nM); 82.41 ± 5.00 with MDA-MB231TaxR (single agent 150 nM); 57.75 ± 3.78 with MDA-MB231TaxR (single agent 300 nM). For the same compound, the “effects on the kidney” value in the data set “Kidney histology (H&E)” is “approximately 1 out of 5 mice showed renal abnormalities”.

In the case of `COc1ccccc1C(=O)/C=C/c1cc2cccc(OC)c2[nH]c1=O` [CTR-21, (E)-8-methoxy-3-(3-(2-methoxyphenyl)-3-oxoprop-1-enyl) quinolin-2(1H)-one], the half-inhibitory concentration (IC50) is 0.00534 ± 0.00089 µM in the data set with RPMI-8226 (myeloma) (Table 4); 0.0203 ± 0.00247 µM in the data set on MCF-10A (setting [2]); 0.037 ± 0.0025 µM with 184B5 (72 hours, Table 4); 0.0119 ± 0.0014 µM in the data set with HeLa (72 hours, Table 4). Moreover, the “killing of MDA-MB231TaxR compared with parental MDA-MB231” value with MDA-MB231TaxR was “to the same degree as the parental MDA-MB231 cells”. Also, the Cell survival rate in the data set on MDA-MB231TaxR (single agent 23.4 nM) came to 52.10 ± 3.71.
